Patent US20240197700A1, “Methods and Compositions for Treating Lysosomal Storage Disorders” (Sanford Health, priority 2021, published 2024)

Tested on: NCL MEFs
Experiment: LysoTracker signal in Batten disease mouse embryonic fibroblasts
Format: cell-based
Description: Wild type (WT) and mutant cells were treated with vehicle or LM11A-31 (100 nM, 1 μM, 10 μM). Cells were plated on day 0 and dosed with drug-containing media on DIV3 and DIV5. Concentrations of drug are shown on the x-axis above each image column; genotypes are shown to the left of each row. […] Increasing concentrations of LM11A-31 are shown along the x-axis.
Specific experimental details are included in figure legends. In general, after collection and preparation, MEFs and PNCs were dosed with vehicle or semaglutide (10 nM, 100 nM. or 1 μM) on DIV3 and DIV5. On DIV7, cells were exposed to the following dyes: Hoechst 33342 (1:1000 dilution), LysoTracker™ Red DND-99 (1:10,000 dilution), fixed. and imaged. Mice were injected three times per week with vehicle or semaglutide (2.571 μg/mouse, 25.71 μg/mouse) beginning at wean. Body weight was measured at 4, 6, 8, 12, and 16 weeks of age. At 16 weeks of age, Cln3^Δex7/8 mice along with age matched wildtype control mice were CO2 euthanized and intracardially perfused with PBS. Brains were collected and placed on a 1 mm sagittal brain block. Brains were sliced at the midline and 3 mm right of the midline. The 3 mm sagittal piece was flash frozen with −50° C. isopentane and then sectioned on a cryostat at 16 μm and placed on slides. For ASM measurements, slides were counterstained with DAPI. The other hemisphere was fixed in 4% PFA and sectioned at 50 microns on a vibratome. Immunohistochemistry was performed on free-floating sections. For SubC, GFAP, and CD68 immunolabeling, primary antibodies included mitochondrial anti-ATP synthase subunit C (Abcam, ab181243; 1:1000), anti-GFAP (Dako, Z0334; 1:5000), anti-CD68 (AbD Serotec, MCA1957; 1:2000), and secondary antibodies included anti-rabbit biotinylated (Vector Labs, BA-1000 1:1000) and anti-rat (Vector Labs, BA-9400 1:1000). Coverslips were mounted on slides using antifade-mounting media and were stored in the dark before imaging. ASM slides were imaged on a Nikon ECLIPSE™ Ni-E upright microscope with a CoolSNAP™ DYNO camera. Images were extracted from S1BF of the somatosensory cortex, CA3 of the hippocampus, and the VPM/VPL of the thalamus, with multiple images taken of multiple tissues from each animal. IHC slides were imaged and analyzed using an Aperio Digital Pathology Slide Scanner (AT2) and associated software. Images were extracted from the S1BF of the somatosensory cortex, the CA3 of the hippocampus, and the VPM/VPL of the thalamus.
The glucagon-like peptide-1 (GLP-1) analogue, semaglutide is an FDA approved type II diabetes drug. It has been shown in previous reports that GLP1 receptor (GLP1R) agonists decrease the release of inflammatory cytokines by modulating microglial activity, but existing studies have not examined any activity on lysosome-related pathways. To test whether GLP1R agonism would reduce Batten disease pathology, we tested semaglutide in Batten disease cell models (FIGS. 18-19). Wild type (WT) and mutant mouse embryonic fibroblasts (MEFs) were treated with vehicle or semaglutide (10 nM, 100 nM, 1 μM; see FIG. 18). Cells were plated on in vitro day 0 and dosed with drug-containing media on DIV3 and DIV5. Analysis occurred on DIV7. Concentrations of drug are shown on the x-axis above each image column; genotypes are shown to the left of each row. […] Increasing concentrations of semaglutide are shown along the x-axis. […] Treatment with semaglutide (10 nM, 100 nM, 1 μM) had no impact on the accumulation of autofluorescent storage material (ASM) in Cln1^R151X, Cln2^R207X, Cln3^Δex7/8, Cln6^nclf, and Cln8^mnd MEFs (FIG. 18B).

With Cc1cccc(NC(=O)c2ccc(C(F)(F)F)cc2C(=O)O)n1 [AF38469, 2-((6-methylpyridin-2-yl)carbamoyl)-5-(trifluoromethyl)benzoic acid] the LysoTracker signal (40 nM, 400 nM, 4 μM, Cln1^R151X, Cln2^R207X, Cln6^nclf, Cln8^mnd, Cln11^−/− MEFs, DIV7, vs NCL vehicle) was “significantly reduced”, the LysoTracker signal (40 nM, Cln3^Δex7/8 MEFs, DIV7) was “significantly increased” and the LysoTracker signal (400 nM, Cln3^Δex7/8 MEFs, DIV7) was “significantly reduced”. The LysoTracker signal (4 μM, Cln3^Δex7/8 MEFs, DIV7) was “had no impact”.
CC[C@H](C)[C@H](N)C(=O)NCCN1CCOCC1 [LM11A-31, N-[2-(morpholin-4-yl)ethyl]-L-isoleucinamide] was tested, and the LysoTracker signal (LM11A-31 100 nM, NCL MEFs) was “had no impact”, the LysoTracker signal (LM11A-31 1 μM (mid dose), Cln1^R151X, Cln2^R207X MEFs) was “significantly reduced” and the LysoTracker signal (LM11A-31 1 μM, Cln3^Δex7/8, Cln6^nclf, Cln8^mnd MEFs) was “decreasing trend”. The LysoTracker signal (LM11A-31 10 μM, Cln1^R151X and Cln2^R207X MEFs) was “decreasing trend” and the LysoTracker signal (LM11A-31 varying doses, Cln3^Δex7/8 and Cln6^nclf MEFs) was “decreasing trend”.
With semaglutide the LysoTracker signal (semaglutide 10 nM and 100 nM, Cln8^mnd MEFs) was “had no impact”, the LysoTracker signal (semaglutide 10 nM, 100 nM, 1 μM, Cln1^R151X and Cln6^nclf MEFs) was “had no impact” and the LysoTracker signal (semaglutide 10 nM, 100 nM, 1 μM, Cln2^R207X MEFs) was “significantly reduced”. The LysoTracker signal (semaglutide 10 nM, Cln3^Δex7/8 MEFs) was “had no impact”, the LysoTracker signal (semaglutide 100 nM, 1 μM, Cln3^Δex7/8 MEFs) was “significantly reduced” and the LysoTracker signal (semaglutide 1 μM, Cln8^mnd MEFs) was “significantly reduced”.
